# From PMC5462828 (Scientific Reports, 2017)
# Tests used:
# MMP-2 = experiment: Gelatin zymography of MMP-2 in human cardiac fibroblasts; format: cell-based; conditions: HCFs; 72 hours; ML290 1 μM, H2 relaxin 0.1 μM
# Procedure: Changes in matrix metalloproteinases-2 (MMP-2; gelatinase A) activity that were secreted from HCFs into the cell media over a 72 hour experimental period, were assessed by gelatin zymography as described previously, [45]. […] Cells were used between passages 1–4, while all experiments were performed four separate times in duplicate. The optical density (OD) of MMP-2 was measured using a GS710 Calibrated Imaging Densitomer (Bio-Rad Laboratories, Hercules, CA, USA), and the mean ± SE OD of MMP-2 in each treated group was expressed as the relative ratio of the values in the untreated control group.
# p-Smad2 = experiment: Smad2 phosphorylation assay in human cardiac fibroblasts; format: cell-based; conditions: 72 hours
# Procedure: (§1) Cells were serum-starved in M199 medium for 24 hours prior sample collection. Cells were used between passages 1–4, while all experiments were performed four separate times in duplicate. Levels of p-Smad2 and p-Smad3 were detected using Sure-fire kits according to the manufacturer’s instructions (Perkin-Elmer, Australia).
# RXFP1 [1] = target: T1, RXFP1 (Homo sapiens, UniProt Q9HBX9); experiment: cAMP accumulation in HEK-RXFP1 cells; format: cell-based; set-up: expressed in transfected cells; host or cells: HEK293T / HEK293 cells stably expressing RXFP1 (HEK-RXFP1); conditions: read-out: cAMP accumulation efficacy (Emax)
# T1 sequence (Q9HBX9 1-757): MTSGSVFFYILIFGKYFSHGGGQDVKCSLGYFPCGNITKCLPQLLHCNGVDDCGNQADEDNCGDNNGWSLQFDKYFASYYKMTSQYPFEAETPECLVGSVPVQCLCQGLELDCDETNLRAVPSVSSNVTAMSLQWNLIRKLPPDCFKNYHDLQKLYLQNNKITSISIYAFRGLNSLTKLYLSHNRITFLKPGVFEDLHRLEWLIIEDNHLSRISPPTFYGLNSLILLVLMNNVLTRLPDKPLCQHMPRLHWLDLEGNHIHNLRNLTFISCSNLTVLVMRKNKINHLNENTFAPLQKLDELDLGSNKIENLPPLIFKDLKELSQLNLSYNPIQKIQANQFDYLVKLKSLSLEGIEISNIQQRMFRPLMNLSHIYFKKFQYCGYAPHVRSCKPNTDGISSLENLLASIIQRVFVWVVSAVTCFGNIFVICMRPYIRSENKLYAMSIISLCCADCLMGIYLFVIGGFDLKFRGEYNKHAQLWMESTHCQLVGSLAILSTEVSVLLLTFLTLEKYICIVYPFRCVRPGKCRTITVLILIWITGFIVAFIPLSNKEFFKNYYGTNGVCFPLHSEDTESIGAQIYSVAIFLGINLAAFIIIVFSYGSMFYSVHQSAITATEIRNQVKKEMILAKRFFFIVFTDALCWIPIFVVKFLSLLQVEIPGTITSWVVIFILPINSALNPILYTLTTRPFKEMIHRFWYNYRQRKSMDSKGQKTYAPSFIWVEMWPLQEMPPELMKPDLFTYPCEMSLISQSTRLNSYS
# Procedure: (§2) cAMP and cGMP accumulation was determined as previously described, [16]. Briefly, HEK293 cells were plated in 96-well plates (5 × 10^4 cells/well) and human primary cells were plated into 24-well plates (1 × 10^5 cells/well) and grown overnight to achieve a confluent monolayer. Prior to stimulation, HEK cells were serum-starved in DMEM containing 0.5% FBS v/v and primary cells were serum-starved in M199 medium for 4–6 hours. Where appropriate, cells were pre-incubated with mSIRK (5 μM, 30 min), mSIRK control peptide L9A (5 μM, 30 min), gallein (100 μM, 30 min), Wortmannin (100 nM, 30 min), NF023 (10 μM, 30 min) and NF449 (10 μM, 30 min). Levels of cAMP and cGMP were detected according to the manufacturer’s instructions (Perkin-Elmer, Australia).
# p-Smad3 = experiment: Smad3 phosphorylation assay in human cardiac fibroblasts; format: cell-based; conditions: 72 hours
# Procedure: as §1
# RXFP1 [2] = experiment: cGMP accumulation in human primary vascular cells and cardiac fibroblasts; format: cell-based; conditions: HUAEC, cells that do not express cell surface RXFP1; 30 min
# Procedure: as §2
# RXFP1 [3] = target: T1, RXFP1; experiment: as above; format: cell-based; conditions: for cGMP accumulation, maximum: DEA 10 μM, 5 min
# Procedure: as §2
# human RXFP1 = conditions: cited from earlier work
# RXFP1 [4] = target: T1, RXFP1; experiment: JNK1/2 phosphorylation (Surefire) in HEK-RXFP1 cells; format: cell-based; set-up: expressed in transfected cells; host or cells: HEK293T / HEK293 cells stably expressing RXFP1 (HEK-RXFP1); conditions: up to 45 min, H2 relaxin 100 nM, ML290 100 nM or 10 μM
# Procedure: p-ERK1/2, p-p38MAPK and p-JNK1/2 was measured using the Surefire ERK, p38 and JNK kits (TGR BioSciences, Australia) as described previously, [16]. Briefly, HEK-RXFP1 cells were plated into 96-well plates (5 × 10^4 cells/well) and primary cells grown in 24-well plates (1 × 10^5 cells/well) overnight to achieve a confluent monolayer. Prior to stimulation, HEK293 cells were serum-starved with DMEM containing 0.5% (v/v) FBS and primary cells in M199 medium for 4–6 hours. […] Levels of p-ERK1/2, p-p38MAPK and p-JNK1/2/3 were detected as per manufacturer’s instructions (Perkin-Elmer, Australia).
# RXFP1 [5] = target: T1, RXFP1; experiment: 125I-H2 relaxin association and dissociation kinetic studies in HEK-RXFP1 cells; format: binding; set-up: expressed in transfected cells; host or cells: HEK293T / HEK293 cells stably expressing RXFP1 (HEK-RXFP1); conditions: ML290 1 μM
# Procedure: Association and dissociation kinetic studies were performed using ^125I-H2 relaxin. Briefly, HEK-RXFP1 cells were plated in 96-well plates and allowed to adhere overnight. After rinsing with PBS, the cells were incubated at the given time intervals with 100pM of ^125I-H2 relaxin to measure the association rate. The dissociation rate of ML290 was calculated using ligand competition. […] The reactions were terminated by the removal of medium and washing with ice-cold PBS. Cells were digested using 0.1 M NaOH and radioactivity counted on the γ-counter.
# [6] = HCFs not treated with TGF-β1, H2 relaxin 0.1 μM, ML290 1 μM
# [7] = HCFs, TGF-β1 2 ng/ml + H2 relaxin 0.1 μM or ML290 1 μM
smiles,measurement,setting,value
"CC(C)Oc1ccccc1C(=O)Nc1ccccc1C(=O)Nc1cccc(S(=O)(=O)C(F)(F)F)c1 [ML290, 2-Isopropoxy-N-(2-(3-(trifluoromethylsulfonyl)phenylcarbamoyl)phenyl) benzamide]",increase of MMP-2 expression versus untreated controls,MMP-2,~40%
same,effect on p-Smad2 levels,p-Smad2; [6],neither H2 relaxin (0.1 μM) nor ML290 (1 μM) significantly affected
same,p-Smad2 in TGF-β1-stimulated cells,p-Smad2; [7],1.58 ± 0.34 fold/basal
same,Emax,RXFP1 [1],113%
same,effect on p-Smad3 levels,p-Smad3; [6],neither H2 relaxin (0.1 μM) nor ML290 (1 μM) significantly affected
same,p-Smad3 in TGF-β1-stimulated cells,p-Smad3; [7],1.15 ± 0.05 fold/basal
same,cGMP accumulation,RXFP1 [2],no effect
same,"cGMP accumulation, maximum","RXFP1 [3]; HCAEC, 30 min",40.6 ± 5.6 % of the DEA response
same,"cGMP accumulation, maximum","RXFP1 [3]; HUASMC, 30 min",21.0 ± 4.1 % of the DEA response
same,Emax,"RXFP1 [3]; HUVEC, read-out: cGMP accumulation efficacy (Emax), HUVEC, 30 min",23.5%
same,"cGMP accumulation, maximum","RXFP1 [3]; HUVEC, 30 min",23.5 ± 4.4 % of the DEA response
same,"cGMP accumulation, maximum","RXFP1 [3]; HUVSMC, 30 min",11.0 ± 3.4 % of the DEA response
same,Emax,"RXFP1 [3]; read-out: cGMP accumulation efficacy (Emax), HCAEC, 30 min",40.6%
same,Emax,"RXFP1 [3]; read-out: cGMP accumulation efficacy (Emax), HCF",45.3%
same,Emax,"RXFP1 [3]; read-out: cGMP accumulation efficacy (Emax), HUASMC, 30 min",21%
same,Emax,"RXFP1 [3]; read-out: cGMP accumulation efficacy (Emax), HUVSMC, 30 min",11%
same,agonist action at human RXFP1,human RXFP1,activates
same,"JNK1/2 phosphorylation, time course",RXFP1 [4],no effect
same,effect on the association rate of 125I-H2 relaxin,RXFP1 [5],no significant effect
